Measured values: ChEMBL document CHEMBL1201862, “PubChem BioAssay data set” (2004)
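Cultured in 96-well plates, cells were exposed to test compound for 48 hours across five concentrations. Abbreviation: GI50, concentration required for 50% inhibition of growth.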 Calls of active or inactive are those of the source. Rule as the data show it: active = GI50 up to about 1.1 µM and inactive = higher.

Legend:
Experiment in all cases: growth of human tumour cells (NCI), 48 h
786-0 = test system: 786-0
A498 = test system: A498
A549 = test system: A549
ACHN = test system: ACHN
BT-549 = test system: BT-549
CAKI-1 = test system: CAKI-1
CCRF-CEM = test system: CCRF-CEM
COLO 205 = test system: COLO 205
DU-145 = test system: DU-145
EKVX = test system: EKVX
HCT-116 = test system: HCT-116
HCT-15 = test system: HCT-15
HL-60 = test system: HL-60
HOP-62 = test system: HOP-62
HOP-92 = test system: HOP-92
HT-29 = test system: HT-29
Hs-578T = test system: Hs-578T
IGROV-1 = test system: IGROV-1
K562 = test system: K562
KM12 = test system: KM12
LOX IMVI = test system: LOX IMVI
M14 = test system: M14
MCF7 = test system: MCF7
MDA-MB-231 = test system: MDA-MB-231
MDA-MB-435 = test system: MDA-MB-435
MDA-N = test system: MDA-N
MOLT-4 = test system: MOLT-4
Malme-3M = test system: Malme-3M
NCI-H226 = test system: NCI-H226
NCI-H23 = test system: NCI-H23
NCI-H460 = test system: NCI-H460
NCI-H522 = test system: NCI-H522
NCI/ADR-RES = test system: NCI/ADR-RES
OVCAR-3 = test system: OVCAR-3
OVCAR-4 = test system: OVCAR-4
OVCAR-5 = test system: OVCAR-5
OVCAR-8 = test system: OVCAR-8
PC-3 = test system: PC-3
RXF 393 = test system: RXF 393
SF-268 = test system: SF-268
SF-295 = test system: SF-295
SF-539 = test system: SF-539
SK-MEL-28 = test system: SK-MEL-28
SK-MEL-2 = test system: SK-MEL-2
SK-MEL-5 = test system: SK-MEL-5
SK-OV-3 = test system: SK-OV-3
SN12C = test system: SN12C
SNB-19 = test system: SNB-19
SR = test system: SR
T47D = test system: T47D
TK-10 = test system: TK-10
U-251 = test system: U-251
UACC-257 = test system: UACC-257
UACC-62 = test system: UACC-62
UO-31 = test system: UO-31
RPMI-8226 = test system: RPMI-8226
SW-620 = test system: SW-620
HCC 2998 = test system: HCC 2998
SNB-75 = test system: SNB-75

With `O=C(CCc1cccc(O)c1)NCCc1ccc(O)cc1` the GI50 (786-0) was > 100 µM (inactive), the GI50 (A498) was > 100 µM (inactive) and the GI50 (A549) was > 100 µM (inactive). For the same molecule, the GI50 (ACHN) was 95.9 µM (inactive), the GI50 (BT-549) was > 100 µM (inactive) and the GI50 (CAKI-1) was > 100 µM (inactive). For the same molecule, the GI50 (CCRF-CEM) was > 100 µM (inactive), the GI50 (COLO 205) was > 100 µM (inactive) and the GI50 (DU-145) was > 100 µM (inactive). For the same molecule, the GI50 (EKVX) was > 100 µM (inactive), the GI50 (HCT-116) was > 100 µM (inactive) and the GI50 (HCT-15) was greater than 100 µM. The GI50 (HL-60) was > 100 µM (inactive), the GI50 (HOP-62) was > 100 µM (inactive) and the GI50 (HOP-92) was > 100 µM (inactive). The GI50 (HT-29) was > 100 µM (inactive), the GI50 (Hs-578T) was > 100 µM (inactive) and the GI50 (IGROV-1) was > 100 µM (inactive). The GI50 (K562) was > 100 µM (inactive), the GI50 (KM12) was > 100 µM (inactive) and the GI50 (LOX IMVI) was > 100 µM (inactive). The GI50 (M14) was > 100 µM (inactive), the GI50 (MCF7) was > 100 µM (inactive) and the GI50 (MDA-MB-231) was > 100 µM (inactive). For the same molecule, the GI50 (MDA-MB-435) was > 100 µM (inactive), the GI50 (MDA-N) was > 100 µM (inactive) and the GI50 (MOLT-4) was > 100 µM (inactive). For the same molecule, the GI50 (Malme-3M) was > 100 µM (inactive), the GI50 (NCI-H226) was > 100 µM (inactive) and the GI50 (NCI-H23) was > 100 µM (inactive). For the same molecule, the GI50 (NCI-H460) was > 100 µM (inactive), the GI50 (NCI-H522) was 17.3 µM (inactive) and the GI50 (NCI/ADR-RES) was > 100 µM (inactive). For the same molecule, the GI50 (OVCAR-3) was > 100 µM (inactive), the GI50 (OVCAR-4) was > 100 µM (inactive) and the GI50 (OVCAR-5) was > 100 µM (inactive). For the same molecule, the GI50 (OVCAR-8) was > 100 µM (inactive), the GI50 (PC-3) was > 100 µM (inactive) and the GI50 (RXF 393) was > 100 µM (inactive). For the same molecule, the GI50 (SF-268) was > 100 µM (inactive), the GI50 (SF-295) was > 100 µM (inactive) and the GI50 (SF-539) was > 100 µM (inactive). The GI50 (SK-MEL-28) was > 100 µM (inactive), the GI50 (SK-MEL-2) was > 100 µM (inactive) and the GI50 (SK-MEL-5) was > 100 µM (inactive). The GI50 (SK-OV-3) was > 100 µM (inactive), the GI50 (SN12C) was > 100 µM (inactive) and the GI50 (SNB-19) was > 100 µM (inactive). The GI50 (SR) was > 100 µM (inactive), the GI50 (T47D) was > 100 µM (inactive) and the GI50 (TK-10) was > 100 µM (inactive). The GI50 (U-251) was > 100 µM (inactive), the GI50 (UACC-257) was > 100 µM (inactive) and the GI50 (UACC-62) was > 100 µM (inactive). For the same molecule, the GI50 (UO-31) was > 100 µM (inactive).
With `COc1ccc(CC(=O)N2CCC3(C)CC(=O)CC=C23)cc1OC` (configuration not stated) the GI50 (786-0) was > 100 µM (inactive), the GI50 (A498) was > 100 µM (inactive) and the GI50 (A549) was > 100 µM (inactive). The GI50 (ACHN) was > 100 µM (inactive), the GI50 (BT-549) was > 100 µM (inactive) and the GI50 (CAKI-1) was > 100 µM (inactive). The GI50 (COLO 205) was > 100 µM (inactive), the GI50 (DU-145) was > 100 µM (inactive) and the GI50 (EKVX) was > 100 µM (inactive). For the same molecule, the GI50 (HCT-116) was > 100 µM (inactive), the GI50 (HCT-15) was greater than 100 µM and the GI50 (HL-60) was > 100 µM (inactive). For the same molecule, the GI50 (HOP-62) was 93.8 µM (inactive), the GI50 (HOP-92) was > 100 µM (inactive) and the GI50 (HT-29) was > 100 µM (inactive). For the same molecule, the GI50 (Hs-578T) was > 100 µM (inactive), the GI50 (IGROV-1) was > 100 µM (inactive) and the GI50 (K562) was > 100 µM (inactive). The GI50 (KM12) was > 100 µM (inactive), the GI50 (LOX IMVI) was > 100 µM (inactive) and the GI50 (M14) was > 100 µM (inactive). The GI50 (MCF7) was > 100 µM (inactive), the GI50 (MDA-MB-231) was > 100 µM (inactive) and the GI50 (MDA-MB-435) was > 100 µM (inactive). The GI50 (MDA-N) was > 100 µM (inactive), the GI50 (MOLT-4) was > 100 µM (inactive) and the GI50 (Malme-3M) was > 100 µM (inactive). The GI50 (NCI-H226) was > 100 µM (inactive), the GI50 (NCI-H23) was > 100 µM (inactive) and the GI50 (NCI-H522) was 33.6 µM (inactive). The GI50 (NCI/ADR-RES) was > 100 µM (inactive), the GI50 (OVCAR-3) was > 100 µM (inactive) and the GI50 (OVCAR-4) was > 100 µM (inactive). The GI50 (OVCAR-5) was > 100 µM (inactive), the GI50 (OVCAR-8) was > 100 µM (inactive) and the GI50 (PC-3) was > 100 µM (inactive). For the same molecule, the GI50 (RPMI-8226) was > 100 µM (inactive), the GI50 (RXF 393) was > 100 µM (inactive) and the GI50 (SF-268) was > 100 µM (inactive). For the same molecule, the GI50 (SF-295) was > 100 µM (inactive), the GI50 (SF-539) was > 100 µM (inactive) and the GI50 (SK-MEL-28) was > 100 µM (inactive). For the same molecule, the GI50 (SK-MEL-2) was > 100 µM (inactive), the GI50 (SK-MEL-5) was > 100 µM (inactive) and the GI50 (SK-OV-3) was > 100 µM (inactive). For the same molecule, the GI50 (SN12C) was > 100 µM (inactive), the GI50 (SNB-19) was > 100 µM (inactive) and the GI50 (SR) was > 100 µM (inactive). The GI50 (SW-620) was > 100 µM (inactive), the GI50 (T47D) was > 100 µM (inactive) and the GI50 (TK-10) was < 0.01 µM (active). For the same molecule, the GI50 (U-251) was > 100 µM (inactive), the GI50 (UACC-62) was > 100 µM (inactive) and the GI50 (UO-31) was > 100 µM (inactive).
For `CCOC(=O)c1cc(C2CCN(c3ccccc3)C2=O)c(C(=O)/C=C(/C)O)[nH]1` (configuration not stated), the GI50 (786-0) was 54.5 µM (inactive), the GI50 (A498) was > 100 µM (inactive) and the GI50 (A549) was 93.8 µM (inactive). For the same molecule, the GI50 (ACHN) was > 100 µM (inactive), the GI50 (BT-549) was 61.2 µM (inactive) and the GI50 (CAKI-1) was 47.8 µM (inactive). For the same molecule, the GI50 (CCRF-CEM) was 59.6 µM (inactive), the GI50 (COLO 205) was > 100 µM (inactive) and the GI50 (DU-145) was > 100 µM (inactive). The GI50 (EKVX) was 24.7 µM (inactive), the GI50 (HCC 2998) was > 100 µM (inactive) and the GI50 (HCT-116) was 65.8 µM (inactive). For the same molecule, the GI50 (HCT-15) was 51.6 µM, the GI50 (HL-60) was 27.2 µM (inactive) and the GI50 (HOP-62) was > 100 µM (inactive). For the same molecule, the GI50 (HT-29) was > 100 µM (inactive), the GI50 (Hs-578T) was 93.8 µM (inactive) and the GI50 (IGROV-1) was > 100 µM (inactive). For the same molecule, the GI50 (K562) was 64 µM (inactive), the GI50 (KM12) was 45.2 µM (inactive) and the GI50 (LOX IMVI) was 58.6 µM (inactive). For the same molecule, the GI50 (M14) was > 100 µM (inactive), the GI50 (MCF7) was 59.8 µM (inactive) and the GI50 (MDA-MB-231) was 81.5 µM (inactive). The GI50 (MDA-MB-435) was 60.8 µM (inactive), the GI50 (MDA-N) was 58.6 µM (inactive) and the GI50 (MOLT-4) was 42.7 µM (inactive). The GI50 (Malme-3M) was > 100 µM (inactive), the GI50 (NCI-H226) was > 100 µM (inactive) and the GI50 (NCI-H23) was 55.6 µM (inactive). For the same molecule, the GI50 (NCI-H460) was > 100 µM (inactive), the GI50 (NCI-H522) was 67.5 µM (inactive) and the GI50 (NCI/ADR-RES) was 73.5 µM (inactive). The GI50 (OVCAR-3) was > 100 µM (inactive), the GI50 (OVCAR-4) was 63.8 µM (inactive) and the GI50 (OVCAR-5) was > 100 µM (inactive). For the same molecule, the GI50 (OVCAR-8) was > 100 µM (inactive), the GI50 (PC-3) was 88.3 µM (inactive) and the GI50 (RPMI-8226) was 48.9 µM (inactive). For the same molecule, the GI50 (RXF 393) was 21.6 µM (inactive), the GI50 (SF-268) was > 100 µM (inactive) and the GI50 (SF-295) was 70.8 µM (inactive). The GI50 (SF-539) was 8.38 µM (inactive), the GI50 (SK-MEL-28) was > 100 µM (inactive) and the GI50 (SK-MEL-2) was > 100 µM (inactive). For the same molecule, the GI50 (SK-MEL-5) was 36.3 µM (inactive), the GI50 (SK-OV-3) was 96.4 µM (inactive) and the GI50 (SN12C) was > 100 µM (inactive). For the same molecule, the GI50 (SNB-19) was > 100 µM (inactive), the GI50 (SNB-75) was 74.5 µM (inactive) and the GI50 (SR) was 34.1 µM (inactive). For the same molecule, the GI50 (SW-620) was > 100 µM (inactive), the GI50 (T47D) was 36.6 µM (inactive) and the GI50 (TK-10) was > 100 µM (inactive). The GI50 (U-251) was > 100 µM (inactive), the GI50 (UACC-257) was 89.1 µM (inactive) and the GI50 (UACC-62) was 82 µM (inactive). The GI50 (UO-31) was 66.7 µM (inactive).
